Data taken from publication PMC9785441, “A Broad Spectrum Antiparasitic Activity of Organotin (IV) Derivatives and Its Untargeted Proteomic Profiling Using Leishmania donovani” (Pathogens, 2022).
Entries after “also recorded” stand apart in the source; their conditions may differ.

Legend:
[1] = test system: L. donovani-infected B10R cells; assay: Untargeted proteomics of L. donovani-infected B10R cells treated and untreated with MS26Et3; type: cell-based, mouse / Leishmania donovani; details: L. donovani-infected B10R cells exposed to compound vs not exposed
Experimental: B10R culture cells (infected or uninfected with Leishmanaia donovani) were collected and washed twice in cold PBS. The cell pellets (~10^6 cells/pellet) were snap-frozen and stored at −80 °C. To extract the proteins, pellets were thawed, and the cells were resuspended in 200 µL buffer containing 6 M urea, 7% SDS, 50 mM TEAB, protease inhibitor cocktail (Roche, cat. no. A32963), phosphatase inhibitor (Roche, cat. no. A32957), with pH adjusted to 8.1 with phosphoric acid. The cells were then lysed using a sonicating probe 200 µL. The samples were reduced in 500 mM DTT at 47 °C for 30 min and alkylated in 500 mM IAA in the absence of light, at room temperature for 45 min, followed by quenching in 500 mM DTT for 5 min. The samples were then acidified with 12% phosphoric acid and mixed in a 7:1 ratio with binding buffer containing 90% methanol, 50 mM TEAB, pH 7.1, adjusted with phosphoric acid and loaded on to S-Trap columns (Protifi). […] The concentration of desalted peptides was determined and 50 µg aliquots of each sample were dried in a speed vacuum concentrator. […]
Basic pH reverse-phase LC and data acquisition through LC–MS2/MS3 were performed as previously described. […] Fractions were then analyzed using tandem mass spectrometry (MS2/MS3) on an Orbitrap Fusion mass spectrometer (ThermoFisher, Waltham, MA, USA) with an in-line EASY-nLC 1000 instrument (ThermoFisher, Waltham, MA, USA). […]

[2] = Cytotoxicity to B10R host cells (nuclei count in the amastigote assay); type: cell-based; details: mouse, B10R monocyte cells co-cultured with L. donovani parasites
Experimental: For the intracellular amastigote stage assay, L. donovani was incubated at a density of 1 × 10^6 parasites/mL for six days at 29 °C before infection to enrich the proportion of metacyclic promastigotes. B10R monocyte cell lines were cultured in RPMI supplemented with 10% FBS and 1%penicillin/streptomycin at 37 °C in 5% CO2. After 72 h, cells were counted with a hemocytometer and mixed with the six-day-old parasites. […] Plates were incubated at 37 °C and 5% CO2 for 72 h. Cultures were then fixed with 4% formaldehyde solution for 30 min and stained with 0.5 µg/mL DAPI (diamidino-2-phenylindole). Plates were then imaged using an ImageXpress Micro XLS automated high content imager (Molecular Devices, San Jose, CA, USA) using a 10× air objective. A custom image analysis module generated in ImageXpress was used to count the nuclei of host and parasite cells. EC50 values were obtained using the GraphPad Prism 9 Software with biological triplicates.

[3] = HEK293 cytotoxicity assay (resazurin); type: cell-based; details: HEK-293T cells, human embryonic kidney cells, max 4 µM, read-out: CC50 HEK923
Experimental: HEK-293T cells were cultured in DMEM (Gibco) supplemented with 10% heat inactivated FBS (Corning) and 1% penicillin-streptomycin (Gibco). Cells were maintained in vented T75 cell culture flasks (Thermo Scientific, Cat. 12-565-349) at 37 °C and 5% CO2, and were passaged every 72 h. […] Compounds were diluted with fresh DMEM (49 µL/well). HEK-293 cells were suspended at 4 × 10^5 cells/mL in DMEM and added to each well (50 µL/well) to give 2 × 10^4 cells/well. Assay plates were incubated at 37 °C and 5% CO2 for 48 h, followed by addition of 20 µL of 0.5 mM resazurin (Alfa Aesar, Cat. B21187) in PBS to each well. […] In each assay plate, cell viability was normalized relative to positive and negative controls. Assays were performed in biological and technical duplicates, and dose–response and CC50 data were generated with GraphPad Prism 5 using a sigmoidal four parameter logistic curve.

SMILES | Rab7 expression / abundance [1] | CC50 at 72 h [2] [nM] | CC50 at 48 h [3] [nM]
C[CH2][Sn]([CH2]C)([CH2]C)[O]C(=O)CCC(=O)Nc1ccc(OC)cc1 [MS26Et3] | reduced expression; also recorded: differentially expressed; also recorded: decreased in abundance | – | –
COc1ccc(NC(=O)CCC(=O)O)cc1 [MS26, 4-(4-methoxyphenylamino)-4 oxobutanoic acid] | – | 2380 | > 4000
